# From the supplement of paper PMC10307832
# Key:
# Assay in all cases: relative viability (nuclei count vs DMSO), 5 days (fraction); higher = more cells survive
# [1] = compound: C1CC2=C(C1)C=C(C=C2)OC3=NC(=C4C(=N3)N(C=N4)CC5=CC=C(C=C5)C6=CC=CC=C6)N[C@@H](CC7=CC=CC=C7)CO [QS11] + Cc1nc(NC(=O)N2CCC[C@H]2C(N)=O)sc1-c1ccnc(C(C)(C)C(F)(F)F)c1 [Alpelisib] (partner 2 µM)
# Procedure, shortened: (§1)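 Nuclei were stained with Hoechst during a one-step fixation (final 0.05% Triton X-100, 1% formaldehyde, 1 ug/ml Hoechst) carried out 5 days after dosing, then counted on 4× images. The cells, lung cancer lines in 1536-well plates, had been dosed by pin tool the day after seeding with one drug alone or a fixed anchor-drug dose plus five library-drug doses (not always all listed) in √10 steps. Relative viability is the nuclei count in treated wells divided by that in vehicle wells, and each value is the median of duplicate plates.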
# [2] = compound: C[As](C)SC[C@H](NC(=O)CC[C@H](N)C(=O)O)C(=O)NCC(=O)O [Darinaparsin] + N=C(N)NC(=N)NCCc1ccccc1 [Phenformin] (partner 250 µM)
# Procedure, shortened: as §1
# [3] = compound: C[As](C)SC[C@H](NC(=O)CC[C@H](N)C(=O)O)C(=O)NCC(=O)O [Darinaparsin] + CS(=O)(=O)N1CCN(Cc2cc3nc(-c4cccc5[nH]ncc45)nc(N4CCOCC4)c3s2)CC1 [Pictilisib] (partner 1 µM)
# Procedure, shortened: as §1
# [4] = compound: CC1=C(C=C(C=C1)NC(=O)C2=CC(=CC=C2)C(C)(C)C#N)NC3=CC4=C(C=C3)N=CN(C4=O)C [AZ628] + Nc1ncn([C@H]2C[C@H](O)[C@@H](CO)O2)c(=O)n1 [Decitabine] (partner 2 µM)
# Procedure, shortened: as §1
Cell Line,relative viability ([1]; first compound 0.08 µM),relative viability ([1]; first compound 0.253 µM),relative viability ([1]; first compound 0.8 µM),relative viability ([1]; first compound 2.53 µM),relative viability ([1]; first compound 8 µM),relative viability ([2]; first compound 0.08 µM),relative viability ([2]; first compound 0.8 µM),relative viability ([2]; first compound 2.53 µM),relative viability ([2]; first compound 8 µM),relative viability ([3]; first compound 0.08 µM),relative viability ([3]; first compound 0.8 µM),relative viability ([3]; first compound 2.53 µM),relative viability ([3]; first compound 8 µM),relative viability ([4]; first compound 0.08 µM),relative viability ([4]; first compound 0.253 µM),relative viability ([4]; first compound 0.8 µM),relative viability ([4]; first compound 2.53 µM),relative viability ([4]; first compound 8 µM)
HCC-827,0.907,1.02,0.931,1.05,1.01,0.41,0.417,0.331,0.435,1.06,0.907,0.901,1.01,0.33,0.32,0.348,0.402,0.313
HOP-62,0.968,0.927,0.956,0.85,0.535,0.964,0.759,0.494,0.8,0.99,0.588,0.774,1.04,0.235,0.265,0.236,0.249,0.214
IA-LM,0.665,0.747,0.378,0.826,0.473,,,,,0.414,0.408,0.949,0.313,,,,,
LC-2-ad,0.93,0.853,0.698,1.08,0.779,0.614,0.5,0.564,0.484,0.564,0.456,0.32,0.533,0.821,0.782,0.816,0.732,0.453
LCLC-103H,1.07,0.979,0.797,0.938,0.974,0.36,0.365,0.318,0.349,0.52,0.566,0.593,0.604,0.71,0.728,0.726,0.641,0.601
LK-2,1.01,1.15,1.21,0.868,1.59,0.399,,0.346,0.429,0.634,,0.547,0.564,0.308,0.271,0.326,0.338,0.184
LOU-NH91,0.687,0.636,,0.691,0.697,0.731,0.683,0.692,0.705,0.535,0.492,0.553,0.56,0.814,0.811,0.801,0.816,0.749
LU99A,0.486,0.528,0.596,0.367,0.405,0.927,0.856,0.897,0.78,0.336,0.313,0.294,0.322,0.825,0.669,0.806,0.447,0.386
LXF-289,1.07,1.05,0.764,0.906,0.85,0.556,0.523,0.471,0.556,0.806,0.749,0.597,0.981,0.403,0.378,0.394,0.371,0.372
NCI-H23,0.647,0.638,0.557,0.508,0.69,0.935,0.839,0.86,0.842,0.431,0.494,0.444,0.603,0.298,0.315,0.232,0.291,0.269
NCI-H322M,0.84,0.83,0.87,0.863,0.867,0.886,0.795,0.663,0.795,0.58,0.495,0.469,0.59,0.659,0.716,0.696,0.681,0.688
NCI-H358,0.914,0.857,1.02,1.5,1.35,0.429,0.387,0.331,0.376,0.315,0.319,0.343,0.319,0.233,0.192,0.184,0.195,0.158
NCI-H441,0.785,0.843,0.784,0.794,0.706,1.13,0.821,0.597,0.88,0.566,0.498,0.424,0.548,0.257,0.313,0.245,0.212,0.226
NCI-H522,,,,,,0.711,0.597,0.611,0.658,,,,,0.62,0.66,0.686,0.78,0.522
NCI-H1299,1.09,1.1,1.02,0.962,1.05,,,,,1.03,0.882,0.751,0.808,,,,,
NCI-H1563,0.902,0.931,1.02,0.831,0.749,0.773,0.619,0.658,0.642,0.693,0.63,0.594,0.602,,,,,
NCI-H1623,,,,,,0.619,0.572,0.587,0.621,,,,,,,,,
NCI-H1648,,,,,,,,,,,,,,0.72,0.563,0.453,0.453,0.489
NCI-H1650,,,,,,0.472,0.416,0.494,0.395,0.666,0.503,0.623,0.59,0.586,0.485,0.429,0.382,0.615
NCI-H1703,0.322,0.409,0.32,0.331,0.446,,,,,0.236,0.271,0.261,0.268,,,,,
NCI-H2228,0.705,0.854,0.762,1.14,1.11,0.254,0.281,0.328,0.387,0.401,0.344,0.473,0.544,,,,,
NCI-H2342,,,,,,0.596,0.627,0.567,0.628,,,,,0.837,0.651,0.779,0.726,0.747
SW 900,,,,,,0.836,0.475,0.701,0.643,,,,,0.442,0.445,0.509,0.417,0.441
